Patent publication US20260364089A1, “PYRIDOPYRIMIDINE KRAS INHIBITORS” (Treeline Biosciences, Inc., priority 2022, published 2026)

Columns and labels:
KRas G12V [1] = molecular target: T1, KRas G12V (Homo sapiens, UniProt P01116, G12V); assay: SOS1-Catalyzed Nucleotide Exchange Assay, KRas G12V (Method 1); type: biochemical; conditions: 5 nM KRas G12V (aa 1-169, GDP-loaded), 50 nM SOS1
T1 construct: Biotinylated KRas G12V (aa 1-169) loaded with GDP nucleotide; biotin (biotinylated)
Procedure: KRas G12V [Method 1]: Biotinylated KRas G12V (aa 1-169) loaded with GDP nucleotide and Streptavidin-Europium (SA-EU, Columbia Biosciences) were preincubated in assay buffer (20 mM HEPES pH 7.4, 150 mM NaCl, 5 mM MgCl2, 1 mM DTT, 0.01% Brij-35, 0.3 mg/mL BSA) on ice for 30 min. Separately SOS1 (aa 546-1049) and EDA-GTP-DY647P1 (Jena Bioscience) were preincubated in assay buffer on ice for 30 min. After pre-incubation, 5 μL buffer and 5 μL of KRas G12V-SA-Eu were added to each well of a white, low-volume, non-binding 384-well plate. Compounds were then added to respective wells with a Tecan D300e liquid dispenser. A 10-point concentration response curve for each compound was prepared with appropriate top concentration (1 μM, 10 μM, or 300 μM) and incubated for 30 min. 5 μL of SOS1-EDA-GTP-D467P1 was added to start the nucleotide exchange reaction. Final concentration in the assay were 5 nM KRas G12V, 50 nM SOS1 (aa 564-1049). The reaction was allowed to proceed for 60-90 minutes after which the plate was read on a PHERAstar FSX plate reader (exc: 337 nm, em 1: 665 nm, em 2: 620 nm). After normalization of the raw data (ratio of Signal665nm/Signal620nm) the data was fit to a four-parameter logistic curve in GraphPad Prism (v9.4.1).

KRas G12V [2] = molecular target: T1, KRas G12V; assay: SOS1-Catalyzed Nucleotide Exchange Assay, KRas G12V (Method 2); type: biochemical; conditions: 5 nM KRas G12V (aa 1-169, GDP-loaded), 50 nM SOS1
Procedure: KRas G12V [Method 2]: Compounds were pre-dispensed via Echo liquid handling (acoustic, touch-free) to generate assay ready plates (ARP). More precisely, a 10-point concentration response curve for each compound was prepared with appropriate top concentration (1 μM, 10 μM, 100 μM). Biotinylated KRas G12V (aa 1-169) loaded with GDP nucleotide and Streptavidin-Europium (SA-EU, Columbia Biosciences) were preincubated in assay buffer (20 mM HEPES pH 7.4, 150 mM NaCl, 5 mM MgCl2, 1 mM DTT, 0.01% Brij-35, 0.3 mg/mL BSA) on ice for 30 min. Separately SOS1 (aa 546-1049) and EDA-GTP-DY647P1 (Jena Bioscience) were preincubated in assay buffer on ice for 30 min. After 30 minutes of incubation for the assay components, 5 μL buffer and 5 μL of KRas G12V-SA-Eu were added to each well of the ARP. After a further 30 min, 5 μL of SOS1-EDA-GTP-D467P1 was added to start the nucleotide exchange reaction. Final concentration in the assay were 5 nM KRas G12V, 50 nM SOS1 (aa 564-1049). The reaction was allowed to proceed for 60-90 minutes after which the plate was read on a plate reader. After normalization of the raw data, the data was fit to a four-parameter logistic curve.

[3] = Method 2, B, read-out: KRas G12V IC50 (nM) (Method 2, B)
[4] = Method 2, A, read-out: KRas G12V IC50 (nM) (Method 2, A)

T1 sequence (P01116 1-169 G12V): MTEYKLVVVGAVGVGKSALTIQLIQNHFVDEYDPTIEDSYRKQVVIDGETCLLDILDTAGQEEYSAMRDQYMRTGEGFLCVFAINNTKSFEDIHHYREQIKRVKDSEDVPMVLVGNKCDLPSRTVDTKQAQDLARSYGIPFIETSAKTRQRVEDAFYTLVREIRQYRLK

O=C1CCCCc2c(Cl)cc(O)cc2-c2ncc3c(nc(OC[C@@]45CCCN4C[C@H](F)C5)nc3c2F)N2CCCC(O)(CCN1)C2 (stereo partly drawn) [Compound 140a, 3^3-chloro-2^8-fluoro-2^2-(((2R,7aS)-2-fluorotetrahydro-1H-pyrrolizin-7a(5H)-yl)methoxy)-1^3,3^5-dihydroxy-9-aza-2(4,7)-pyrido[4,3-d]pyrimidina-1(1,3)-piperidina-3(1,2)-benzenacycloundecaphan-8-one]
IC50 (KRas G12V [1]): ≤ 100 nM

O=C1CCCCc2c(Cl)cc(O)cc2-c2ncc3c(nc(OC[C@@]45CCCN4C[C@H](F)C5)nc3c2F)N2CCCC(CN1)C2 (stereo partly drawn) [Compound 141a, 3^3-chloro-2^8-fluoro-2^2-(((2R,7aS)-2-fluorotetrahydro-1H-pyrrolizin-7a(5H)-yl)methoxy)-3^5-hydroxy-9-aza-2(4,7)-pyrido[4,3-d]pyrimidina-1(1,3)-piperidina-3(1,2)-benzenacyclodecaphan-8-one]
IC50 (KRas G12V [1]): ≤ 100 nM

Nc1cc2c(c(Cl)n1)CCCCC(=O)NCCC1(O)CCCN(C1)c1nc(OC[C@@]34CCCN3C[C@H](F)C4)nc3c(F)c-2ccc13 (stereo partly drawn) [Compound 187a, 1^6-amino-1^2-chloro-2^8-fluoro-2^2-(((2R,7aS)-2-fluorotetrahydro-1H-pyrrolizin-7a(5H)-yl)methoxy)-3^3-hydroxy-6-aza-2(7,4)-quinazolina-1(4,3)-pyridina-3(1,3)-piperidinacycloundecaphan-7-one]
IC50 (KRas G12V [2]; [3]): 1000 to 10000 nM

Nc1cc2c3c(c(F)ccc3c1)CCCC(=O)NCCC1CCCN(C1)c1nc(OC[C@@]34CCCN3C[C@H](F)C4)nc3c(F)c-2ncc13 (stereo partly drawn) [Compound 189a, 3^3-amino-2^8,3^7-difluoro-2^2-(((2R,7aS)-2-fluorotetrahydro-1H-pyrrolizin-7a(5H)-yl)methoxy)-8-aza-2(4,7)-pyrido[4,3-d]pyrimidina-1(1,3)-piperidina-3(1,8)-naphthalenacyclodecaphan-7-one]
IC50 (KRas G12V [2]; [4]): 100 to 1000 nM | IC50 (KRas G12V [2]; [3]): 100 to 1000 nM

Nc1cc2c3c(c(F)ccc3c1)CCCC(=O)NCCC1CCCN(C1)c1nc(OC[C@@]34CCCN3C[C@H](F)C4)nc3c(F)c-2ccc13 (stereo partly drawn) [Compound 190a, 3^3-amino-2^8,3^7-difluoro-2^2-(((2R,7aS)-2-fluorotetrahydro-1H-pyrrolizin-7a(5H)-yl)methoxy)-8-aza-2(4,7)-quinazolina-1(1,3)-piperidina-3(1,8)-naphthalenacyclodecaphan-7-one]
IC50 (KRas G12V [2]; [4]): 100 to 1000 nM | IC50 (KRas G12V [2]; [3]): 100 to 1000 nM

O=C1CCCc2c(F)ccc3cccc(c23)-c2ccc3c(nc(OC[C@@]45CCCN4C[C@H](F)C5)nc3c2F)N2CCCC(CCN1)C2 (stereo partly drawn) [Compound 191a, 2^8,3^7-difluoro-2^2-(((2R,7aS)-2-fluorotetrahydro-1H-pyrrolizin-7a(5H)-yl)methoxy)-8-aza-2(4,7)-quinazolina-1(1,3)-piperidina-3(1,8)-naphthalenacyclodecaphan-7-one]
IC50 (KRas G12V [2]; [4]): 100 to 1000 nM | IC50 (KRas G12V [2]; [3]): ≤ 100 nM

Nc1cc2c3c(c(F)ccc3c1)CCCC(=O)NCC1COCCN(C1)c1nc(OC[C@@]34CCCN3C[C@H](F)C4)nc3c(F)c-2ncc13 (stereo partly drawn) [Compound 192a, 3^3-amino-2^8,3^7-difluoro-2^2-(((2R,7aS)-2-fluorotetrahydro-1H-pyrrolizin-7a(5H)-yl)methoxy)-8-aza-1(4,6)-oxazepana-2(4,7)-pyrido[4,3-d]pyrimidina-3(1,8)-naphthalenacyclononaphan-7-one]
IC50 (KRas G12V [2]; [4]): 100 to 1000 nM | IC50 (KRas G12V [2]; [3]): 100 to 1000 nM

O=C1CCCc2c(F)ccc3cccc(c23)-c2ncc3c(nc(OC[C@@]45CCCN4C[C@H](F)C5)nc3c2F)N2CCOCC(CN1)C2 (stereo partly drawn) [Compound 193a, 2^8,3^7-difluoro-2^2-(((2R,7aS)-2-fluorotetrahydro-1H-pyrrolizin-7a(5H)-yl)methoxy)-8-aza-1(4,6)-oxazepana-2(4,7)-pyrido[4,3-d]pyrimidina-3(1,8)-naphthalenacyclononaphan-7-one]
IC50 (KRas G12V [2]; [4]): 100 to 1000 nM | IC50 (KRas G12V [2]; [3]): 100 to 1000 nM

O=C1CCCc2c(F)ccc3cc(O)cc(c23)-c2ncc3c(nc(OC[C@@]45CCCN4C[C@H](F)C5)nc3c2F)N2CCOCC(CCN1)C2 (stereo partly drawn) [Compound 194a, 2^8,3^7-difluoro-2^2-(((2R,7aS)-2-fluorotetrahydro-1H-pyrrolizin-7a(5H)-yl)methoxy)-3^3-hydroxy-8-aza-1(4,6)-oxazepana-2(4,7)-pyrido[4,3-d]pyrimidina-3(1,8)-naphthalenacyclodecaphan-7-one]
IC50 (KRas G12V [2]; [4]): ≤ 100 nM | IC50 (KRas G12V [2]; [3]): ≤ 100 nM

O=C1CCCc2c(F)ccc3cc(O)cc(c23)-c2ccc3c(nc(OC[C@@]45CCCN4C[C@H](F)C5)nc3c2F)N2CCOCC(CCN1)C2 (stereo partly drawn) [Compound 195a, 2^8,3^7-difluoro-2^2-(((2R,7aS)-2-fluorotetrahydro-1H-pyrrolizin-7a(5H)-yl)methoxy)-3^3-hydroxy-8-aza-1(4,6)-oxazepana-2(4,7)-quinazolina-3(1,8)-naphthalenacyclodecaphan-7-one]
IC50 (KRas G12V [2]; [4]): ≤ 100 nM | IC50 (KRas G12V [2]; [3]): ≤ 100 nM

O=C1CCCCc2c(Cl)cc3[nH]ncc3c2-c2ncc3c(nc(OC[C@@]45CCCN4C[C@H](F)C5)nc3c2F)N2CCCC(CCN1)C2 (stereo partly drawn) [Compound 196a, 1^6-chloro-2^8-fluoro-2^2-(((2R,7aS)-2-fluorotetrahydro-1H-pyrrolizin-7a(5H)-yl)methoxy)-1^1H-6-aza-2(7,4)-pyrido[4,3-d]pyrimidina-1(4,5)-indazola-3(1,3)-piperidinacycloundecaphan-7-one]
IC50 (KRas G12V [2]; [3]): ≤ 100 nM

O=C1CCCCc2c(Cl)cc3[nH]ncc3c2-c2ccc3c(nc(OC[C@@]45CCCN4C[C@H](F)C5)nc3c2F)N2CCOCC(CN1)C2 (stereo partly drawn) [Compound 198a, 3^6-chloro-2^8-fluoro-2^2-(((2R,7aS)-2-fluorotetrahydro-1H-pyrrolizin-7a(5H)-yl)methoxy)-3^1H-9-aza-1(4,6)-oxazepana-2(4,7)-quinazolina-3(4,5)-indazolacyclodecaphan-8-one]
IC50 (KRas G12V [2]; [3]): ≤ 100 nM

O=C1CCCCc2c(Cl)cc3[nH]ncc3c2-c2ccc3c(nc(OC[C@@]45CCCN4C[C@H](F)C5)nc3c2F)N2CCCC(O)(CCN1)C2 (stereo partly drawn) [Compound 199a, 1^6-chloro-2^8-fluoro-2^2-(((2R,7aS)-2-fluorotetrahydro-1H-pyrrolizin-7a(5H)-yl)methoxy)-3^3-hydroxy-1^1H-6-aza-2(7,4)-quinazolina-1(4,5)-indazola-3(1,3)-piperidinacycloundecaphan-7-one]
IC50 (KRas G12V [2]; [3]): ≤ 100 nM

O=C1CCCCc2c(Cl)cc3[nH]ncc3c2-c2c(F)cc3c(nc(OC[C@@]45CCCN4C[C@H](F)C5)nc3c2F)N2CCOCC(CN1)C2 (stereo partly drawn) [Compound 200a, 3^6-chloro-2^6,2^8-difluoro-2^2-(((2R,7aS)-2-fluorotetrahydro-1H-pyrrolizin-7a(5H)-yl)methoxy)-3^1H-9-aza-1(4,6)-oxazepana-2(4,7)-quinazolina-3(4,5)-indazolacyclodecaphan-8-one]
IC50 (KRas G12V [2]; [3]): ≤ 100 nM

Nc1cc(Cl)c2c(c1)-c1ncc3c(nc(OC[C@@]45CCCN4C[C@H](F)C5)nc3c1F)N1C[C@H](F)C[C@H](C1)NC(=O)CCCC2 [Compound 201a, (1^3R,1^5R)-3^5-amino-3^3-chloro-1^5,2^8-difluoro-2^2-(((2R,7aS)-2-fluorotetrahydro-1H-pyrrolizin-7a(5H)-yl)methoxy)-9-aza-2(4,7)-pyrido[4,3-d]pyrimidina-1(1,3)-piperidina-3(1,2)-benzenacyclononaphan-8-one]
IC50 (KRas G12V [2]; [3]): 100 to 1000 nM

O=C1CCCCc2c(Cl)cc3[nH]ncc3c2-c2ncc3c(nc(OC[C@@]45CCCN4C[C@H](F)C5)nc3c2F)N2CCOCC(CN1)C2 (stereo partly drawn) [Compound 203a, 3^6-chloro-2^8-fluoro-2^2-(((2R,7aS)-2-fluorotetrahydro-1H-pyrrolizin-7a(5H)-yl)methoxy)-3^1H-9-aza-1(4,6)-oxazepana-2(4,7)-pyrido[4,3-d]pyrimidina-3(4,5)-indazolacyclodecaphan-8-one]
IC50 (KRas G12V [2]; [3]): ≤ 100 nM
